Measurements as given in patent US7252835B2, “Agent for preventing and/or treating sinusitis” (Ono Pharmaceutical Co., Ltd., priority 1998, dated 2007).
Like-named read-outs stand apart in the source and are kept apart here.

Tests used:
[1] = tested on: Normal human paranasal sinus mucosa; test: Inhibitory effect on the reduction of ciliary movement in paranasal sinus mucosa induced by LTs; type: cell-based; conditions: pranlukast hydrate 1 μM, FIG. 1
Source text: Inhibitory Effect of Pranlukast Hydrate on the Reduction of Ciliary Movement in Paranasal Sinus Mucosa Induced by LTs
1) Culturing of Paranasal Sinus Mucosa
Normal human paranasal sinus mucosa obtained at the time of surgical operation of facial trauma or the like was used on the agreement of the patient. The collected paranasal sinus mucosa was thoroughly washed with a culture medium RPMI 1640 (Gibco Life Technologies), cut into 4 mm×4 mm species and then subjected to tissue culture in a culturing chamber of 35 mm×10 mm using RPMI 1640 containing 10% FCS (fetal calf serum). In order to remove mucus and cellular debris, the culture medium was exchanged every other day.
2) Preparation of Test Solutions […]
When a test solution was added to the mucosal tissue, culture medium in the chamber was removed and mucosal tissue was washed with RPMI 1640 and then the test solution (1 ml) was injected. As a control, the ciliary activity was measured in case of injecting only RPMI 1640 into the chamber. By defining the ciliary activity measured just before injection of each test solution (0 minute) as the reference value (100), the ciliary activity measured after injection of each test solution was expressed as percentage (%) of the reference value. […]

[2] = tested on: intractable sinusitis patients; test: Effect of pranlukast hydrate on intractable sinusitis (clinical, oral administration); type: in vivo, human; conditions: 450 mg/day oral
Protocol: Effect of Pranlukast Hydrate on Intractable Sinusitis
Pranlukast hydrate was orally administered to intractable sinusitis patients (34 persons, average age 54.4 years) at a daily dose of 450 mg (112.5 mg/capsule, 2 capsules per 1 time, twice a day (after every breakfast and supper), every day administration). On the 2 weeks, 4 weeks, 6 weeks and 8 weeks after the administration, 1) improving degree of the nasal mucosa swelling, 2) improving degree of the properties of nasal flow, 3) improving degree of the amount of nasal flow, 4) improving degree of the postnasal discharge, 5) improving degree of the nasal obstruction, 6) improving degree of the nasal flow (frequency of blowing nose) and 7) improving degree of the X-ray shadow of each patient were judged (however, parameters in respective weeks are not constant).

[3] = tested on: mice; conditions: both, mouse, in vivo
Protocol: (§1) It was confirmed that the compound of the formula (I) or a salt and/or hydrate thereof has sufficiently low toxicity and is sufficiently safe for using it as a medicament. For example, as the acute toxicity of pranlukast hydrate, its minimum lethal dose was 2,000 mg/kg or more (oral or subcutaneous administration), or 30 mg/kg or more (intravenous injection) in mice and rats (both males and females).

[4] = tested on: rats; conditions: both, rat, in vivo
Protocol: as §1

Question: What does the source list for `O=C(Nc1cccc2c(=O)cc(-c3nnn[nH]3)oc12)c1ccc(OCCCCc2ccccc2)cc1` [pranlukast hydrate, 4-oxo-8-[4-(4-phenylbutoxy)benzoylamino]-2-(tetrazol-5-yl)4H-1-benzopyran·½ hydrate]?
Answer: inhibition of reduction of paranasal sinus mucosa ciliary activity induced by LTC4 ([1]; LTC4 0.1 μM, ciliary activity after 6 hours): has the activity to inhibit reduction of paranasal sinus mucosa ciliary activity; inhibition of reduction of paranasal sinus mucosa ciliary activity induced by LTD4 ([1]; LTD4 0.1 μM, ciliary activity after 4 hours): has the activity to inhibit reduction of paranasal sinus mucosa ciliary activity; Effective ratio, improving degree of the amount of nasal flow ([2]; on the 2nd week): 52%; Effective ratio, improving degree of the nasal flow (frequency of blowing nose) ([2]; on the 2nd week): 34%; Effective ratio, improving degree of the nasal mucosa swelling ([2]; on the 2nd week): 32%; Effective ratio, improving degree of the nasal obstruction ([2]; on the 2nd week): 19%; Effective ratio, improving degree of the postnasal discharge ([2]; on the 2nd week): 39%; Effective ratio, improving degree of the properties of nasal flow ([2]; on the 2nd week): 33%; Effective ratio, improving degree of the amount of nasal flow ([2]; on the 4th week): 55%; Effective ratio, improving degree of the nasal flow (frequency of blowing nose) ([2]; on the 4th week): 52%; Effective ratio, improving degree of the nasal mucosa swelling ([2]; on the 4th week): 29%; Effective ratio, improving degree of the nasal obstruction ([2]; on the 4th week): 21%; Effective ratio, improving degree of the postnasal discharge ([2]; on the 4th week): 38%; Effective ratio, improving degree of the properties of nasal flow ([2]; on the 4th week): 48%; Effective ratio, improving degree of the amount of nasal flow ([2]; on the 6th week): 68%; Effective ratio, improving degree of the nasal flow (frequency of blowing nose) ([2]; on the 6th week): 65%; Effective ratio, improving degree of the nasal mucosa swelling ([2]; on the 6th week): 43%; Effective ratio, improving degree of the nasal obstruction ([2]; on the 6th week): 35%; Effective ratio, improving degree of the postnasal discharge ([2]; on the 6th week): 39%; Effective ratio, improving degree of the properties of nasal flow ([2]; on the 6th week): 52%; Effective ratio, improving degree of the X-ray shadow ([2]; on the 8th week): 83%; Effective ratio, improving degree of the amount of nasal flow ([2]; on the 8th week): 65%; Effective ratio, improving degree of the nasal flow (frequency of blowing nose) ([2]; on the 8th week): 60%; Effective ratio, improving degree of the nasal mucosa swelling ([2]; on the 8th week): 40%; Effective ratio, improving degree of the nasal obstruction ([2]; on the 8th week): 29%; Effective ratio, improving degree of the postnasal discharge ([2]; on the 8th week): 62%; Effective ratio, improving degree of the properties of nasal flow ([2]; on the 8th week): 53%; overall clinical effect on subjective symptoms and objective findings of intractable sinusitis ([2]; summary of Tables 1 to 7): has clinical effects on sinusitis; minimum lethal dose ([3]; iv): ≥ 30 mg/kg; minimum lethal dose ([3]; po): ≥ 2,000 mg/kg; minimum lethal dose ([3]; sc): ≥ 2,000 mg/kg; minimum lethal dose ([4]; iv): ≥ 30 mg/kg; minimum lethal dose ([4]; po): ≥ 2,000 mg/kg; minimum lethal dose ([4]; sc): ≥ 2,000 mg/kg
